According to US5844102A, “Glycohydrolase inhibitors, their preparation and use thereof” (University of Maryland Baltimore County, priority 1994, dated 1998):
Where two headings read alike, the source gives them in different places.

Tests used:
[1] = target: T1, α-mannosidase (jackbean) (Canavalia ensiformis, UniProt C0HJB3); assay: α-mannosidase inhibition, p-nitrophenol-α-mannopyranoside substrate; assay type: biochemical; conditions: 25° C., citrate buffer 0.05M, pH 4.5; read-out: Ki (inhibition constant), α-Mannosidase
T1 construct: purchased Sigma Chemical Company
T1 sequence (C0HJB3 1-562 limits assumed): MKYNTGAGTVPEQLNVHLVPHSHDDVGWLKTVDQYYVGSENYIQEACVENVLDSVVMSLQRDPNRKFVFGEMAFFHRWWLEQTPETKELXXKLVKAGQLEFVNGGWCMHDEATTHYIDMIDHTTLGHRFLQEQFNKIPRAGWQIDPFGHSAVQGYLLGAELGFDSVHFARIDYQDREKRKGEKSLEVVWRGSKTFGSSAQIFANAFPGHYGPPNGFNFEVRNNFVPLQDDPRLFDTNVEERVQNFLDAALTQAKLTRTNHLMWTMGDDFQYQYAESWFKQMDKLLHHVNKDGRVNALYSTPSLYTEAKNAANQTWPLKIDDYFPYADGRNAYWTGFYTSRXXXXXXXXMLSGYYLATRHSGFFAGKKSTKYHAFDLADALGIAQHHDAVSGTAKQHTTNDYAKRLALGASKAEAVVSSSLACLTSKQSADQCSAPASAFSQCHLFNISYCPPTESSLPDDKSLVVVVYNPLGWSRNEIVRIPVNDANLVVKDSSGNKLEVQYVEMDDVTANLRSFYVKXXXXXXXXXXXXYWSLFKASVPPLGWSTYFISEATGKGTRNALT
T1 sequence (C0HJB3 563-981 limits assumed): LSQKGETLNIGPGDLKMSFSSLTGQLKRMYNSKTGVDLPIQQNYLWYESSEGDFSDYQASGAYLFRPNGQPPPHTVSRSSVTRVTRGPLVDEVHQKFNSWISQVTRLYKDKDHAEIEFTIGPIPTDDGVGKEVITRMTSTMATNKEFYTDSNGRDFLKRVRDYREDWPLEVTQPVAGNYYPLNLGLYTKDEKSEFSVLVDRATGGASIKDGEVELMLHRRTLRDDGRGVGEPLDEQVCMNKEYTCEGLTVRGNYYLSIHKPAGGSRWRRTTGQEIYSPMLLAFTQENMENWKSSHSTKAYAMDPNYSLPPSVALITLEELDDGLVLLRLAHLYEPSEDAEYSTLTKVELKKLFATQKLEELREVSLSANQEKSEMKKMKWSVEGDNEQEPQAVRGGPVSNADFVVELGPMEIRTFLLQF
Method: (§1) The enzymes α-glucosidase (yeast), β-glucosidase (almonds), isomaltase (bakers yeast) and α-mannosidase (jackbean) were purchased from Sigma Chemical Company. Glucoamylase was isolated by the present inventors by expressing the gene from Aspergillus awamori in yeast, by methods well known in the art. Enzyme assays were performed by using p-nitrophenol -α (or β)-glucopyranosides as substrate at 37° C. in phosphate buffer (0.05M, pH 6.8) for α (β)-glucosidase and isomaltase, and p-nitrophenol-α-mannopyranoside as substrate at 25° C. in citrate (0.05M, pH 4.5) buffer for α-mannosidase. Glucoamylase was assayed using maltose as substrate at 50° C. in sodium acetate buffer (0.05M, pH 4.5).
(§2) Michaelis-Menten constant, Km, was calculated using software Grafit (Erithacus Software Ltd.). Ki was calculated by plotting K^appm vs. [Inhibitor]. FIG. 2(a) represents a plot of K^appm vs. [Inhibitor], wherein the inhibitor is the monosaccharide sugar analog isofagomin, obtained for five different glycosidases.

[2] = target: T2, isomaltase (bakers yeast) (Saccharomyces cerevisiae, UniProt P53051); assay: isomaltase inhibition, p-nitrophenol glucopyranoside substrate; assay type: biochemical
T2 construct: purchased Sigma Chemical Company
Method: as §1
as §2, with “glycosidases. FIG. 2(b) represents a similar plot of K^appm vs. [Inhibitor], wherein the inhibitor is the disaccharide sugar analog of formula II, obtained for five different glycosidases.” for “glycosidases.”

[3] = target: T3, lysosomal α-glucosidase (Rattus norvegicus, UniProt Q6P7A9); conditions: cited from earlier work
T3 construct: host or cells: liver (in vivo)

[4] = in vivo; cited from earlier work
[5] = target: β-glucosidase (almonds); assay: β-glucosidase inhibition, p-nitrophenol-β-glucopyranoside substrate; assay type: biochemical; conditions: for Ki: 37° C., phosphate buffer 0.05M, pH 6.8, read-out: Ki (inhibition constant), β-Glucosidase; for inhibition of β-glucosidase, in words: hydrochloride
Method: as §1
as §2, with “glycosidases. FIG. 2(b) represents a similar plot of K^appm vs. [Inhibitor], wherein the inhibitor is the disaccharide sugar analog of formula II, obtained for five different glycosidases.” for “glycosidases.”

[6] = target: T4, Glucoamylase (Aspergillus awamori, UniProt P69327); assay: glucoamylase inhibition, maltose substrate; assay type: biochemical
T4 construct: made in house; host or cells: yeast
Method: as §1, §2

[7] = system: glycohydrolase degradation of crop; assay: agricultural crop treatment, glycohydrolase degradation; conditions: approximately 10 mg/kg of crop per day, several months of treatment
Method: A composition for treating agricultural crops containing approximately 10 mg/kg of crop per day of isofagomin is administered to a crop. After several months of treatment, the crop is analyzed.

[8] = system: cellulase degradation of wood; assay: wood treatment, cellulase degradation; conditions: approximately 10 mg/kg of wood per day, several months of treatment
Method: A wood treatment composition containing approximately 10 mg/kg of wood per day of isofagomin is administered to a piece of wood. After several months of treatment, the piece of wood is analyzed.

[9] = target: T5, α-glucosidase (yeast) (Saccharomyces cerevisiae, UniProt P53341); assay: α-glucosidase inhibition, p-nitrophenol-α-glucopyranoside substrate; assay type: biochemical; conditions: 37° C., phosphate buffer 0.05M, pH 6.8; read-out: Ki (inhibition constant), α-Glucosidase
T5 construct: purchased Sigma Chemical Company
Method: as §1, §2

[10] = maltose substrate, 50° C., sodium acetate buffer 0.05M, pH 4.5, read-out: Ki (inhibition constant), Glucoamylase
[11] = 37° C., phosphate buffer 0.05M, pH 6.8, read-out: Ki (inhibition constant), Isomaltase

T2 sequence (P53051 whole entry): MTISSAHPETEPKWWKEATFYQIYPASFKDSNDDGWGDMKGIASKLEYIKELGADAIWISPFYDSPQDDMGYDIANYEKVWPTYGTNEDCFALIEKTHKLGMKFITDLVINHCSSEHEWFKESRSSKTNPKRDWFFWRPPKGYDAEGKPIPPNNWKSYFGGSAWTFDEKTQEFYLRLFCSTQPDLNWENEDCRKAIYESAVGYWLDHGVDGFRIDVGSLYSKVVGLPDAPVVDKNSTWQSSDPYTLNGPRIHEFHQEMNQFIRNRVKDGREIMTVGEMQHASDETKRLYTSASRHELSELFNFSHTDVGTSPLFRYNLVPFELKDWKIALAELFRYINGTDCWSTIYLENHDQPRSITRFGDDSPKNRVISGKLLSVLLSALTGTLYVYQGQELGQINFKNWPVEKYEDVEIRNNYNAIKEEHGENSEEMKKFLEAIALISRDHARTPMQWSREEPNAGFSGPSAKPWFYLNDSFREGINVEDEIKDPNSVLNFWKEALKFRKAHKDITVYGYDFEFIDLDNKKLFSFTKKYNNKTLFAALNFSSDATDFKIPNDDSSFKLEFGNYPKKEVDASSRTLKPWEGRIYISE
T4 sequence (P69327 25-640): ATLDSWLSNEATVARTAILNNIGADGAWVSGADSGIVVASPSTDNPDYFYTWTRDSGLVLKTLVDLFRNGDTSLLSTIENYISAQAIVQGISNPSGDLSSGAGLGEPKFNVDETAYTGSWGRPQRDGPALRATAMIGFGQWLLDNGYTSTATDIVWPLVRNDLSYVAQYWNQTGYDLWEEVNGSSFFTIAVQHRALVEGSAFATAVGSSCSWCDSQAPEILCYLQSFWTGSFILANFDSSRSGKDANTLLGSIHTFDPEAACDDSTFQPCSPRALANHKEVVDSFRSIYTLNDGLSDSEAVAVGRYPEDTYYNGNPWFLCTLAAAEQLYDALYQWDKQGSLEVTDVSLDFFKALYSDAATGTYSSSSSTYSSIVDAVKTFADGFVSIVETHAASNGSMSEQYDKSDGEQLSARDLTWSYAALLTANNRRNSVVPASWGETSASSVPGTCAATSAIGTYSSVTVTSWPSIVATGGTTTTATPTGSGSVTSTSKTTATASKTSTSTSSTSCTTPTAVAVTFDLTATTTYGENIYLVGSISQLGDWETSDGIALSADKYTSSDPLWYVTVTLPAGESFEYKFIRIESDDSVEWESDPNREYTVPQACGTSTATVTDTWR
T3 sequence (Q6P7A9 70-953): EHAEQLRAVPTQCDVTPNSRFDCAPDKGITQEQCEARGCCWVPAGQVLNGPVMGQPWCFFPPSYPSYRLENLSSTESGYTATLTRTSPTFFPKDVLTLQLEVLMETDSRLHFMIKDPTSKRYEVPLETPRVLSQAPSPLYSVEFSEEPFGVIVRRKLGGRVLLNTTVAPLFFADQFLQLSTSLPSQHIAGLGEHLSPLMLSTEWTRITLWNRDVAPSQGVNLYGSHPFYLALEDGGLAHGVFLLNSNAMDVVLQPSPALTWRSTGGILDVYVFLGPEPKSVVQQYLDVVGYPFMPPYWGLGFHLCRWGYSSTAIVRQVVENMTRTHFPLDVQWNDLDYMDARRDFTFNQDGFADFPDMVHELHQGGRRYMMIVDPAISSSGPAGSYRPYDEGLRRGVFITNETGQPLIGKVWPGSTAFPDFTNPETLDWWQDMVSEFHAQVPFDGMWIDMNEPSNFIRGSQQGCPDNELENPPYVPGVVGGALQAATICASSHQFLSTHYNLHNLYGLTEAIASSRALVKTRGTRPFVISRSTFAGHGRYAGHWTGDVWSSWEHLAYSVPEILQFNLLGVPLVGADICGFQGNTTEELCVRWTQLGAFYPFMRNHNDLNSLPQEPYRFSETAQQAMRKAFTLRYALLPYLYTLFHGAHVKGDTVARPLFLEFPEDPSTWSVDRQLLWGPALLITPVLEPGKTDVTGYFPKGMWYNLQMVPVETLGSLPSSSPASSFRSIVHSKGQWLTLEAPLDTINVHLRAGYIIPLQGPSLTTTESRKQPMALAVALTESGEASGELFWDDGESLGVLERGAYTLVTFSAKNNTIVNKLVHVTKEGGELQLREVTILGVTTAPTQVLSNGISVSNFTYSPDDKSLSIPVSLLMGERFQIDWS
T5 sequence (P53341 whole entry): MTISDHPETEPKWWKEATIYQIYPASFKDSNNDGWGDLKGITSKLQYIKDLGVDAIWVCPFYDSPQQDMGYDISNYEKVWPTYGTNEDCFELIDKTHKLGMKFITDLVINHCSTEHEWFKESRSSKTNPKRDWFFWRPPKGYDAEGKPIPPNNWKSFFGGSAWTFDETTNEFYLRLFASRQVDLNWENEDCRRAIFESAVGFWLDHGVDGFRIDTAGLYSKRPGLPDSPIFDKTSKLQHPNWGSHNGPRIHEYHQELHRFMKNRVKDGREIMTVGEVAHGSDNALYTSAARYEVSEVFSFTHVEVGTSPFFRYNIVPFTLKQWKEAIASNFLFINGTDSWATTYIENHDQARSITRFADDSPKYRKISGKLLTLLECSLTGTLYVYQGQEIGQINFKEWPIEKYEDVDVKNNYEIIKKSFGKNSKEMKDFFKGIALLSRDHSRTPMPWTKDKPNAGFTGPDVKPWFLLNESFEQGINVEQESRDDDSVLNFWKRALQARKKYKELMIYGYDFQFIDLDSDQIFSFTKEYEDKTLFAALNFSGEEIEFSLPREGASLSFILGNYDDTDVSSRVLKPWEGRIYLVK

## C[C@H]1O[C@H](O[C@H]2[C@H](O)[C@@H](O)[C@@H](O[C@H]3[C@H](O)[C@@H](O)C(O)O[C@@H]3CO)O[C@@H]2CO)[C@H](O)[C@@H](O)[C@@H]1N[C@H]1C=C(CO)[C@@H](O)[C@H](O)[C@H]1O (stereo partly shown) [Acarbose, acarbose, reference compound]
[1]
  Ki: 7600 µM
[2]
  Ki: > 100 µM

## O[C@H]1[C@H](O)[C@@H](O)CN2CC[C@H](O)[C@H]12 [Castanospermine]
[3]; at the minimum effective dose (1 mg/kg)
  accumulation of lysosomal glycogen: Accumulation of lysosomal glycogen has been found
[4]
  minimum effective dose required to reduce the glycemic response to sucrose: 1 mg/kg

## OC[C@H]1NC[C@@H](O)[C@@H](O)[C@@H]1O [Deoxymannojirimycin, reference compound]
[5]
  Ki: […]
[6]; [10]
  Ki: 66 µM
[2]
  Ki: 49.3 µM

## OC[C@H]1NC[C@H](O)[C@@H](O)[C@@H]1O [Deoxynojirimycin, reference compound]
[5]
  Ki: […]
[6]; [10]
  Ki: 9.8 µM
[2]
  Ki: 11.2 µM

## Cl.OC[C@H]1CNC[C@@H](O)[C@@H]1O [MB, (3R,4R,5R)-3,4-dihydroxy-5-hydroxymethyl-piperidine hydrochloride]
[1]
  Ki: 775 µM
[5]
  Ki: 0.11 µM
  inhibition of β-glucosidase, in words: surprisingly strong inhibitor
[5]; FIG. 1(a), three inhibitor concentrations
  mode of inhibition of β-glucosidase (Lineweaver-Burk plot): competitive inhibition
[5]; listed as monosaccharide analog
  inhibition of β-glucosidase, in words: particularly strong inhibitor
[7]
  glycohydrolase degradation of treated crop: No glycohydrolase degradation is detected
[8]
  cellulase degradation of treated wood: No cellulase degradation is detected
[9]
  Ki: 85.9 µM
[6]; [10]
  Ki: 3.7 µM
[2]; [11]
  Ki: 7.2 µM

## CO[C@H]1O[C@H](CN2C[C@H](O)[C@@H](O)[C@H](O)[C@H]2CO)[C@@H](O)[C@H](O)[C@H]1O [MDL, 1,5-dideoxy-1,5-[(6-deoxy-1-O-methyl-6-α,D-glucopyranosyl)imino]-D-glucitol]
[3]; dose 10-fold higher than required to reduce the glycemic response to sucrose
  effect on liver lysosomal α-glucosidase activity or glycogen accumulation: did not affect

## CO[C@H]1O[C@H](CCN2C[C@H](CO)[C@@H](O)[C@H](O)C2)[C@@H](O)[C@H](O)[C@H]1O [TMJ, Methyl 6,7-dideoxy-7-[(3R,4R,5R)-3,4-dihydroxy-5-hydroxymethyl-piperidinyl]-α-D-gluco-heptopyranoside]
[1]
  Ki: 1230 µM
[9]
  Ki: 58.8 µM
[6]
  Ki: 0.063 µM
[2]; [11]
  Ki: 103 µM
